Where two headings read alike, the source gives them in different places.
How the values were obtained:
[1] = tested on: HCT116 cells; assay: MTT assay; assay type: cell-based; settings: Homo sapiens
In short: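 Cells plated one day before dosing, then exposed to compound 72 h at 37 °C, 5% CO2. MTT at 0.5 mg/ml final for 4 h, solubilized in DMF/SDS buffer pH 4.7; OD converted to cell number from a standard growth curve.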

[2] = tested on: acetylated histone H-4 in T24 human bladder cancer cells; assay: Histone H4 acetylation in whole cells by immunoblots; assay type: cell-based; settings: 16 h
In short: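 T24 cells were treated with HDAC inhibitors for 16 h; […] total histone protein was resolved by SDS/PAGE and immunoblotted with polyclonal anti-acetylated H4 antibody. ECL detection, with signal quantified by densitometry.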

[3] = target: T1, cloned recombinant human HDAC-1 (Homo sapiens, UniProt Q13547); assay: Human HDAC-1 enzyme inhibition, Assay 1 ([3H]-acetylated histone substrate, scintillation counting); assay type: biochemical; settings: read-out: Human HDAC-1 IC50
T1 construct: made in house; host or cells: Baculovirus insect cell expression system
T1 sequence (Q13547 whole entry): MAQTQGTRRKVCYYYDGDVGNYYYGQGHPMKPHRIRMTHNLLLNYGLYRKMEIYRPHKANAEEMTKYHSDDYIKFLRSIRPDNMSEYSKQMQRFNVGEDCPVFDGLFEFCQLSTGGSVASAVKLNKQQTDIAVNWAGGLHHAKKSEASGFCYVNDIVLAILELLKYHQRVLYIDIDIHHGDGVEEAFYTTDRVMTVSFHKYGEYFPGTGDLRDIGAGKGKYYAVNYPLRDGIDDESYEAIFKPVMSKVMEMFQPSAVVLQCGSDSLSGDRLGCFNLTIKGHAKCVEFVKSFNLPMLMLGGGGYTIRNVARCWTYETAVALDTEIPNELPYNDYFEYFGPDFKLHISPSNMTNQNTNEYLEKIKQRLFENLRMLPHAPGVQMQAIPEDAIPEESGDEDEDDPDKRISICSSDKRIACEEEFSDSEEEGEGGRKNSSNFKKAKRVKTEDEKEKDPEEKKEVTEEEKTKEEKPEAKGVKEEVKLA
In short: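 Recombinant human HDAC-1 from baculovirus-infected insect cells, preincubated with compound 30 min at 4° C. before reaction. Released [3H]-acetic acid extracted with ethyl acetate and counted by scintillation. IC50 taken from dose-response curves as concentration giving half-maximal inhibition.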

[4] = tested on: HCT116 human colorectal carcinoma cells; assay: Antitumor activity in HCT116 human colorectal tumor xenograft model in vivo; parameters: species or system BALB/c nude mice; settings: Mus musculus, ip, HCT 116 colorectal tumor model, read-out: % Inhibition of Tumor Growth; for inhibition in vivo at 40 mg/kg: 40 mg/kg i.p.; for inhibition in vivo at 20 mg/kg: 20 mg/kg i.p.
Description: Eight to ten week old female BALB/c nude mice (Taconic Labs, Great Barrington, N.Y.) were injected subcutaneously in the flank area with 2×10^6 preconditioned HCT116 human colorectal carcinoma cells. Preconditioning of these cells was done by a minimum of three consecutive tumor transplantations in the same strain of nude mice. Subsequently, tumor fragments of approximately 30 mgs were excised and implanted subcutaneously in mice, in the left flank area, under Forene anesthesia (Abbott Labs, Geneve, Switzerland). When the tumors reached a mean volume of 100 mm^3, the mice were treated intravenously, subcutaneously, or intraperitoneally by daily injection, with a solution of the histone deacetylase inhibitor in an appropriate vehicle, such as PBS, DMSO/water, or Tween 80/water, at a starting dose of 10 mg/kg. The optimal dose of the HDAC inhibitor was established by dose response experiments according to standard protocols. Tumor volume was calculated every second day post infusion according to standard methods (e.g., Meyer et al., Int. J. Cancer 43: 851-856 (1989)). […] FIGS. 2-10 show the results of additional compounds tested.

[5] = tested on: acetyl-H3 in T24 human bladder cancer cells; assay: Histone H3 acetylation assay (anti-acetyl-H3, Amplex-Red fluorescence, normalized to Alamar Blue); assay type: cell-based; settings: T-24, 16 h incubation, read-out: H3 Ac t24
Description: T24 human bladder cancer cells growing in culture are incubated with HDAC inhibitors for 16 h. Cell viability is determined by adding 10 μl Alamar Blue (BioSource, DAL1100). Cells are washed once with PBS and fixed with methanol precooled to −20° C. for 10 min. The cells are then washed twice in PBS. The fixed cells are blocked with 50 μl of PBS+0.1% Triton X-100. Cells are probed with rabbit-anti-acetyl-H3 (Upstate #06-599) as the primary antibody and then with goat-anti-rabbit-HRP (Sigma #A-0545) as the secondary antibody. Fluorescence is read by fluorometer at Ex: 550, Em: 610, Cutoff: 590 (Auto PMT, 15 reads/well) after addition of Amplex-Red. Fluorescence signal is normalized against cell viability derived from Alamar Blue. Maximum acetylation signal of MS-275 (fluorescence unit) is measured as Emax.

[6] = target: HDAC-1 (Homo sapiens, UniProt Q13547); assay: Human HDAC-1 enzyme inhibition, Assay 2 (Boc-Lys(Ac)-AMC, Fluor-de-Lys fluorescence; compounds 604-617); assay type: biochemical; settings: read-out: HDAC1 IC50
HDAC-1, sequence (Q13547 whole entry): as above
Description: Assay 2. The following protocol was also used to assay the compounds of the invention. In the assay, the buffer used was 25 mM HEPES, pH 8.0, 137 mM NaCl, 2.7 mM […], 1 mM MgCl2 and the substrate was Boc-Lys(Ac)-AMC in a 50 mM stock solution in DMSO. The enzyme stock solution was 4.08 μg/mL in buffer. The compounds were pre-incubated (2 μl in DMSO diluted to 13 μl in buffer for transfer to assay plate) with enzyme (20 μl of 4.08 μg/ml) for 10 minutes at room temperature (35 μl pre-incubation volume). The mixture was pre-incubated for 5 minutes at room temperature. The reaction was started by bringing the temperature to 37° C. and adding […] substrate. Total reaction volume was 50 μl. […] A plate was incubated in the dark for 10 minutes at room temperature before reading (λEx=360 nm, λEm=470 nm, Cutoff filter at 435 nm). Assay 2 was used to measure HDAC activity of compounds 604-617 (Table 5). HDAC activity of the remaining compounds was measured by assay 1.

[7] = HCT-116, 72 h, Table 5E, HCT116 cells, 72 hours
[8] = T-24, Table 5E, read-out: H4 Ac (T24) EC50

IC50 ([1]; HCT-116, HCT116 cells)	IC50 [6]	Compound	EC50 [5]	other results
–	–	Nc1nc(NCc2ccc(C(=O)Nc3ccccc3N)cc2)nc(NC2CCCC2)n1 [Cpd 16]	–	IC50 ([1]; HCT-116, 72 h, Table 5a, HCT116 cells, 72 hours): 400 nM; EC50 ([2]; T-24, Table 5a, read-out: H4Ac (T24) EC50): 1000 nM; IC50 ([3]; Table 5a): 1000 nM; inhibition in vivo at 40 mg/kg [4]: 50%
–	–	COc1ccc(CNc2ccc3cc(C(=O)Nc4ccccc4N)ccc3n2)cc1 [Cpd 87]	–	IC50 [1, 7]: 1000 nM; EC50 [2, 8]: 5000 nM; IC50 ([3]; Table 5E): 2000 nM; inhibition in vivo at 40 mg/kg [4]: 30%
–	–	Nc1ccccc1NC(=O)/C=C/c1ccc(NCc2cccc(OC(F)(F)F)c2)nc1 [Cpd 98, N-(2-aminophenyl)-3-[6-(3-trifluoromethoxy-benzylamino)-pyridin-3-yl]-acrylamide]	–	IC50 ([1]; HCT-116, 72 h, Table 5c, HCT116 cells, 72 hours): 2000 nM; EC50 ([2]; T-24, Table 5c, read-out: H4Ac (T24) EC50): 15000 nM; IC50 ([3]; Table 5c): 400 nM; inhibition in vivo at 20 mg/kg [4]: 52%
–	–	Nc1ccccc1NC(=O)c1ccc(Cn2cnc3ccccc3c2=O)cc1 [Cpd 154, N-(2-Amino-phenyl)-4-(4-oxo-4H-quinazolin-3-ylmethyl)-benzamide]	–	IC50 [1, 7]: 400 nM; EC50 [2, 8]: < 1000 nM; IC50 ([3]; Table 5E): 300 nM; inhibition in vivo at 20 mg/kg [4]: 23%
800 nM	60 nM	Nc1ccccc1NC(=O)c1ccc(N2CC[C@H](Nc3cccnc3)C2)cc1 [compound 604, (S)-N-(2-aminophenyl)-4-(3-(pyridin-3-ylamino)pyrrolidin-1-yl)benzamide]	8000 nM	–
3000 nM	300 nM	Nc1ccccc1NC(=O)c1ccc(N2CC[C@@H](Nc3cccnc3)C2)cc1 [compound 605, (R)-N-(2-aminophenyl)-4-(3-(pyridin-3-ylamino)pyrrolidin-1-yl)benzamide]	12000 nM	–
700 nM	400 nM	Nc1ccccc1NC(=O)c1ccc(N2CC[C@H](Oc3cccnc3)C2)cc1 [compound 606, (S)-N-(2-aminophenyl)-4-(3-(pyridin-3-yloxy)pyrrolidin-1-yl)benzamide]	7000 nM	–
300 nM	200 nM	Nc1ccccc1NC(=O)c1ccc(N2CC[C@H](Nc3ccccc3)C2)cc1 [compound 608, (S)-N-(2-aminophenyl)-4-(3-(phenylamino)pyrrolidin-1-yl)benzamide]	200 nM	–
300 nM	90 nM	COc1cc(O[C@H]2CCN(c3ccc(C(=O)Nc4ccccc4N)cc3)C2)cc(OC)c1OC [compound 613, (S)-N-(2-aminophenyl)-4-(3-(3,4,5-trimethoxyphenoxy)pyrrolidin-1-yl)benzamide]	1000 nM	–
8000 nM	100 nM	Nc1ccccc1NC(=O)c1ccc(N2CC[C@H](Oc3ccc4c(c3)OCO4)C2)cc1 [compound 614, (S)-N-(2-aminophenyl)-4-(3-(benzo[d][1,3]dioxol-5-yloxy)pyrrolidin-1-yl)benzamide]	1000 nM	–
700 nM	230 nM	Nc1ccccc1NC(=O)c1ccc(N2CC[C@H](Sc3ccccn3)C2)cc1 [compound 617, (S)-N-(2-aminophenyl)-4-(3-(pyridin-2-ylthio)pyrrolidin-1-yl)benzamide]	2000 nM	–
